Publication PMC13223435, “Synthesis and Antiproliferative Activity against Melanoma Cells of New Heterocyclic Hybrids Based on Pyridine and Pyrimidine Scaffolds” (Current Medicinal Chemistry, 2025)

Columns and labels:
melanoma A375 cells = assay: WST-1 antiproliferative assay; format: cell-based; details: Homo sapiens, A-375
Description: The A375 malignant melanoma cell line (ECACC 88113005, Salisbury, UK) was procured from the European Collection of Authenticated Cell Cultures (ECACC). The primary culture of human dermal fibroblasts (HDF) was derived from skin according to the protocol approved by the Ethical Committee of Pomeranian Medical University in Szczecin (KB-0012/02/18). The detailed protocol of fibroblast isolation, authentication, and cell culture conditions was previously described. Both cell lines were cultivated in a humidified incubator under conditions of 5% CO2 and a temperature of 37°C, using Dulbecco’s modified Eagle’s medium (DMEM) with 4500 mg/L glucose (Sigma-Aldrich Merck Group, St. Louis, MO, USA) enriched with 10% heat-inactivated fetal bovine serum (FBS, EURx, Gdańsk, Poland), 2 mM L-glutamine (Sigma-Aldrich Merck Group, St. Louis, MO, USA), and penicillin-streptomycin solution (Sigma-Aldrich Merck Group, St. Louis, MO, USA). Regular assessments for the presence of mycoplasma were conducted using the MycoAlert® Mycoplasma Detection Kit (Lonza, Rockland, ME, USA).
The evaluation of the antiproliferative activity of the compounds was performed using the Cell Proliferation Reagent WST-1 assay (Roche, Germany). This assay relies on the reduction of tetrazolium salt to formazan, with the final amount of formazan proportional to the number of viable cells. In our study, A375 cells (2×10^3) and HDF (3×10^3) were initially seeded into 96-well plates and cultured in a humidified atmosphere of 5% CO2 at 37°C. 24 hours later, the culture medium was replaced with a medium containing the tested compounds for a 48-hour incubation period at specified final concentrations. […] For control purposes, cells without the tested compounds, which contained only the vehicle (DMSO), were used. Additionally, a blank sample consisting of tested compounds in a medium (without cells) was included. After the 48-hour incubation period, the WST-1 reagent was introduced and allowed to incubate with the cells for 30 minutes. The absorbance was subsequently measured at 450 nm with background correction at 620 nm using a microplate reader (Infinite 200 Pro, Tecan, Männedorf, Switzerland). Cell viability was calculated according to the following formula: [(Atest–Ablank)/ (Acontrol − Ablank)] × 100%. These measurements were conducted in triplicate for at least three independent experiments.
In the screening step, 10 µM solutions of all 33 compounds were tested on A375 cells. […] Selected compounds (2c, 18e, 16b, 29) were tested at concentrations of 0.1, 1, 10, 50, and 100 µM. The IC50 values were determined using an online calculator (AAT Bioquest, Inc., Quest Graph™ IC50 Calculator (v.1). Retrieved from https://www.aatbio.com/tools/IC50-calculator-v1, accessed on: 2022, December 12).

tubulin = target: T1, tubulin (Sus scrofa, UniProt P02550+P02554); assay: Cell free tubulin polymerization assay (fluorescence-based); format: biochemical
T1 construct: purchased Cytoskeleton, Denver, CO, USA
Description: The tubulin polymerization process was evaluated using a tubulin (>99% pure) and fluorescence-based tubulin polymerization kit (Cytoskeleton, Denver, CO, USA). The effects of compounds 16b and 29 (at final concentrations of 1, 10, 50, 100 µM) on tubulin polymerization were evaluated in cell-free conditions. Paclitaxel (PTX) and vinblastine (VBL) (3 µM) were used as references, and DMSO (0.2%) was used as the vehicle control. This assay tracks the process of tubulin polymerization through an increase in fluorescence resulting from the addition of a fluorescence reporter to microtubules as polymerization occurs. After incubating the tested compounds at 37°C for 1 minute, the icy tubulin reaction mixture (2 mg/mL tubulin, 1.0 mM GTP, 15% glycerol in buffer containing 80 mM PIPES, 2.0 mM MgCl2, 0.5 mM EGTA, pH 6.9, and 10 µM fluorescent reporter) was added to the samples, which were then mixed and monitored using a spectrophotometric microplate reader (Infinite 200 Pro, Tecan) at 1-minute intervals for 90 minutes at 37°C (excitation: 360 nm, emission: 450 nm). The software installed on the plate reader was used to compute the maximum slope (Vmax) of the growth phase, measured in RFU/min, as outlined in the manufacturer's instructions. Each polymerization curve's Vmax was then standardized against the control curve's Vmax. The IC50 values were determined using an online tool (AAT Bioquest, Inc., Quest Graph™ IC50 Calculator ((v.1). Retrieved from https://www.aatbio.com/tools/IC50-calculator-v1, accessed on: 2024, May 6).

T1 sequence (P02554 whole entry): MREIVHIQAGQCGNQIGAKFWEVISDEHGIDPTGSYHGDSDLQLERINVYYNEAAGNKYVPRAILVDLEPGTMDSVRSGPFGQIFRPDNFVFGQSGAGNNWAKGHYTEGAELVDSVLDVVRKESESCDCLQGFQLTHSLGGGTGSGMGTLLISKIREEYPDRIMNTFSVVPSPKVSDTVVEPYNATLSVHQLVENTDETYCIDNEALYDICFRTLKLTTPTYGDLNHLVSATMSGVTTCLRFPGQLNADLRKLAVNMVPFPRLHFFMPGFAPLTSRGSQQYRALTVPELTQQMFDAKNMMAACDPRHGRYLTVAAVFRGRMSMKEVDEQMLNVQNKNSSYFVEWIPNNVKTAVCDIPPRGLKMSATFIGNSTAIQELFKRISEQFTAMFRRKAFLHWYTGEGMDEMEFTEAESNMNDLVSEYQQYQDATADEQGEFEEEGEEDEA
T1 sequence (P02550 whole entry): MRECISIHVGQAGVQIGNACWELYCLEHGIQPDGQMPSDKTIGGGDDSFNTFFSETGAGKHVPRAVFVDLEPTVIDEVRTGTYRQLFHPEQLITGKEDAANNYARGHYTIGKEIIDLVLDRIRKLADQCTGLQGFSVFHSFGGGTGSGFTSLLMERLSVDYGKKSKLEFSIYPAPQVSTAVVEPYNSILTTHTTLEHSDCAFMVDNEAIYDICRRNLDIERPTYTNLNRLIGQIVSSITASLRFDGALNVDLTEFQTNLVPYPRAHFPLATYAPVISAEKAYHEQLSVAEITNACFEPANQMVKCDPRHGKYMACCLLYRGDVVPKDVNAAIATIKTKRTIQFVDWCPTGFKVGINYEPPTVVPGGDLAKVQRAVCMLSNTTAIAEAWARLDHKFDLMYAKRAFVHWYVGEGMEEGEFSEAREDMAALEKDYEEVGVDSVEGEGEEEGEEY

**Q.** What does the source list for COc1cc(Cn2cc(-c3cccs3)ccc2=S)cc(OC)c1OC [Compound 16b]?
**A.** activity at 10 µM (melanoma A375 cells; 10 µM, 48 h of treatment, A375, read-out: Cell proliferation (% control)): 42.8 ± 22.9%; IC50 (melanoma A375 cells; 48 hours of treatment): 1.85 ± 0.44 µM; effect on tubulin polymerization (tubulin; 100 µM): acted as tubulin polymerization inhibitors; IC50 (tubulin; Vmax normalised to control, read-out: tubulin polymerization inhibition IC50): 37.3 ± 10.9 µM
